Measurements taken from US20220401461A1, “Pharmaceutical Composition for Protecting Cartilage” (Kyoto University, priority 2019, published 2022).
Counter-ions that a name gives are not always drawn.

Columns and labels:
[1] = test system: human femorotibial joint cartilage; experiment: Organ culture of human cartilage: number of viable cells (CCK-8); type: cell-based; conditions: cartilage of posterolateral femoral condyle; KUS121 100 μM; 72 hours; FIG. 11
Protocol: From a knee joint removed from a patient in knee replacement surgery cartilage of femorotibial joint (posterolateral femoral condyle) was collected by using a biopsy punch having a diameter of 7 mm. The cartilage was cultured in the medium without FBS for 48 hours and then in the medium containing KUS121 (100 μM) for 72 hours. Number of viable cells was determined by washing the cartilage with PBS, adding CCK-8, incubating the cartilage for 30 minutes at 37° C., and determining the absorbances (450 nm, 570 nm). Number of viable cells was larger in the presence of KUS121.

mouse chondrocytes [2] = experiment: Glucose starvation stress: relative number of viable cells (WST8) in mouse chondrocytes; type: cell-based; conditions: chondrocytes differentiated from ATDCS cells; medium containing no glucose; 100 μM KUS121; five days; FIG. 2
Protocol: (§1) Cells of mouse teratocarcinoma-derived cell line ATDCS (J Cell Biol. 1996 April; 133(2):457-68) were cultured in DMEM/Ham's F12 medium containing 5% FBS. The cells were passaged to a 12-well plate at the density of 3×10^4 cells/well and cultured in the presence of insulin (10 μg/ml) (start of differentiation induction, Day 0). The cells were differentiated into chondrocytes by differentiation induction for 14 to 21 days. The cells were used in the following experiments.
The chondrocytes were cultured in the medium containing no glucose and containing KUS 121 (50 or 100 μM) for five days from Day 17 of the differentiation induction. Relative number of viable cells was determined by using WST8.

[3] = test system: caspase 3/7 activity of human chondrocytes; experiment: Caspase 3/7 activity (Casp3/7 Glo assay) of human chondrocytes cultured in the presence of tunicamycin; type: cell-based; conditions: tunicamycin 3 μg/mL; KUS121 100 μM; 6 hours; FIG. 7
Protocol: Human chondrocytes were cultured to 70-80% confluence. Tunicamycin (3 μg/mL) and KUS121 (100 μM) were added to the medium and the cells were cultured for further 6 hours. Casp3/7 Glo assay (Promega) was used in accordance with the manufacture's instructions and caspase 3/7 activity was determined by luminometer. The caspase activity was increased by adding tunicamycin, but not increased in the presence of KUS121.

[4] = test system: cCasp3 in mouse chondrocytes; experiment: Western blotting for cCasp3 in mouse chondrocytes cultured in the presence of TNFα; type: cell-based; conditions: TNFα 20 ng/mL; KUS121 50 or 100 μM; 48 hours; cCasp3 antibody; FIG. 5
Protocol: as §1
On Day 15 of the differentiation induction, TNFα (20 ng/mL) and KUS121 (50 or 100 μM) were added to the medium and the chondrocytes were cultured for 48 hours. The cells were subjected to Western blotting. As primary antibodies, cCasp3 (Cell Signaling #9661S) and actin (Sigma #A5441) were used. Expression of Casp3, an apoptosis marker, was suppressed in the presence of KUS121.

[5] = test system: p-JNK in human chondrocytes; experiment: Western blotting for p-JNK and JNK in human chondrocytes cultured in the presence of tunicamycin; type: cell-based; conditions: tunicamycin 3 μg/mL; KUS121 12.5, 25, 50, or 100 μM; 8 hours; in a dose-dependent manner; FIG. 9
Protocol: (§2) Human chondrocytes were cultured to 70-80% confluence. Tunicamycin (3 μg/mL) and KUS121 (12.5, 25, 50, or 100 μM) were added to the medium and the cells were cultured for further 8 hours. Proteins were collected from the cells and subjected to Western blotting. As primary antibodies, p-JNK (Cell Signaling Technology, #4668), JNK (Cell Signaling Technology, #9252), and β-actin (Cell Signaling Technology, #5125) were used. KUS121 suppressed expression of phosphorylated JNK (p-JNK), a MAP kinase, in a dose-dependent manner.

human chondrocytes = experiment: Viable cells (CCK-8) in monolayer human chondrocytes cultured in the presence of tunicamycin; type: cell-based; conditions: tunicamycin 3 μg/mL and KUS121 100 μM for 24 hours, then 0.5% FBS medium for 48 hours; FIG. 6
Protocol: Chondrocytes were collected from a knee joint removed from a patient in knee replacement surgery. The cells were cultured in DMEM-F12 (Gibco, 11330-032) on a 24-well plate to 70-80% confluence and cultured in the medium without FBS for further 24 hours. The cells were then cultured in the medium containing tunicamycin (3 μg/mL) and KUS121 (100 μM) for 24 hours. The medium was replaced with the medium containing 0.5% FBS and the cells were cultured for 48 hours. For counting viable cells, CCK-8 (DOJINDO LABORATORIES) was added, which is a kit for cell counting comprising WST8 as a chromogenic substrate. The cells were incubated for 15 minutes at 37° C. and the absorbances (450 nm, 570 nm) were determined. Viable cells were decreased by adding tunicamycin, but not decreased in the presence of KUS121.

[6] = test system: MMP13 and MMP1 in human chondrocytes; experiment: Gene expression of MMP13 and MMP1 by real-time PCR in human chondrocytes cultured in the presence of IL-1β; type: cell-based; conditions: IL-1β 2 ng/mL; KUS121 12.5, 25, 50, or 100 μM; 24 hours; in a dose-dependent manner; FIG. 10
Protocol: Human chondrocytes were cultured on a 24-well plate to 70-80% confluence and cultured in the medium without FBS for 24 hours. The cells were then cultured in the medium containing IL-1β (2 ng/mL) and KUS121 (12.5, 25, 50, or 100 μM) for 24 hours. Messenger RNAs were extracted from the cells and cDNAs were generated by reverse transcription. Gene expression levels of MMP13 and MMP1 were determined by real-time PCR. KUS121 suppressed expression of MMP13 and MMP1, which are collagenases, in a dose-dependent manner.

[7] = test system: Bip, ATF4, and CHOP in human chondrocytes; experiment: Western blotting for Bip, ATF4 and CHOP in human chondrocytes cultured in the presence of tunicamycin; type: cell-based; conditions: tunicamycin 3 μg/mL; KUS121 12.5, 25, 50, or 100 μM; 8 hours; in a dose-dependent manner; FIG. 8
Protocol: as §2, with “Bip” for “p-JNK”, “#3177), ATF4” for “#4668), JNK”, “#11815), CHOP (Cell Signaling Technology, #2895),” for “#9252),”, “used. In the absence of tunicamycin expressions of ATF4 and CHOP were observed, but the expression levels were quite low. In the presence of tunicamycin” for “used.”, “Bip, ATF4, and CHOP” for “phosphorylated JNK (p-JNK), a MAP kinase,”

mouse chondrocytes [8] = experiment: TNFα stress: relative number of viable cells (WST8) in mouse chondrocytes; type: cell-based; conditions: chondrocytes differentiated from ATDCS cells; TNFα 10 ng/mL; KUS121 50 or 100 μM; 48 hours; FIG. 3
Protocol: as §1
On Day 15 of the differentiation induction, TNFα (10 ng/mL), which induces apoptosis, and KUS121 (50 or 100 μM) were added to the medium and the chondrocytes were cultured for 48 hours. Relative number of viable cells was determined by using WST8.

[9] = test system: Bip and CHOP in mouse chondrocytes; experiment: Western blotting for Bip and CHOP in mouse chondrocytes cultured in the presence of tunicamycin; type: cell-based; conditions: tunicamycin 3 μg/mL; KUS121 50 or 100 μM; 6 hours; FIG. 4
Protocol: as §1
On Day 15 of the differentiation induction, tunicamycin (3 μg/mL) and KUS121 (50 or 100 μM) were added to the medium and the chondrocytes were cultured for 6 hours. The cells were subjected to Western blotting. As primary antibodies, Bip (Cell Signaling #3177S), CHOP (Proteintech #15204-1-AP), and actin (Sigma #A5441) were used. Expression of Bip and CHOP was suppressed in the presence of KUS121. Bip is an ER stress marker and CHOP induces apoptosis related to ER stress.

[10] = test system: traumatic cartilage damage model rats; experiment: Traumatic cartilage damage model (periodic compression to knee joints) in rats; type: in vivo; conditions: rat, KUS121 20 mg/ml, 100 μl intraarticularly; for Modified Mankin score of posterolateral femoral condyle: versus control group, FIG. 15
Description: It is known that a mouse that has been given periodic compression to a knee joint can be used as a model of post-traumatic cartilage damage (Wu P, Sandell L, et al. Arthritis Rheumatol. 2014; 66(5):1256-65). In a similar manner, a rat post-traumatic cartilage damage model was generated. Specifically, a knee of a hind limb was deeply flexed and fixed on the table of Autograph (Shimadzu Corporation) with the patella facing down. A vertical load of 5 N was applied downward from the heel, then 240 loads of 20 N at the maximum were applied with 5-second intervals. […] This model was used for the following experiments.
Knee joints of 12-week old male Wister rats (five rats per group) were given periodic compression by the method described above. KUS121 (20 mg/ml) in 5% glucose solution (100 μl) was intraarticularly administered to rats in KUS 121 group immediately before the operation and at Day 1, 2, and 3 after the operation. To rats in the control group 5% glucose solution (100 μl) was administered. The rats were sacrificed two or four weeks after the operation. Damages of posterolateral femoral condyle were histologically evaluated.

mouse chondrocytes [11] = experiment: Tm stress: relative number of viable cells (WST8) in mouse chondrocytes cultured in the presence of tunicamycin; type: cell-based; conditions: chondrocytes differentiated from ATDCS cells; tunicamycin 0.2 μg/mL; KUS121 50 or 100 μM; 40 hours; FIG. 1
Protocol: as §1
On Day 15 of the differentiation induction, tunicamycin (0.2 μg/mL), which induces ER stress, and KUS121 (50 or 100 μM) were added to the medium and the chondrocytes were cultured for 40 hours. Relative number of viable cells was determined by using 2-(2-methoxy-4-nitrophenyl)-3-(4-nitrophenyl)-5-(2,4-disulfophenyl)-2H-tetrazolium monosodium salt (WST8).

[12] = test system: Knee osteoarthritis model rats; experiment: Knee osteoarthritis model (monoiodoacetate, MIA) in rats; type: in vivo; conditions: rat, 50 mg/Kg/day intraperitoneally, two weeks after MIA administration
Protocol: It is known that intraarticularly administered monoiodoacetate (MIA) damages chondrocytes and suppresses secretin of collagen and proteoglycan to induce osteoarthritis (M. Udo et al., Osteoarthritis Cartilage. 2016, 24:1284-91). Knee osteoarthritis model rats were generated by administering 0.5 mg of monoiodoacetate (MIA) in 25 μl of saline solution into knee joint cavities of both hind limbs of healthy rats. Prior to the MIA administration, 50 mg/Kg/day of KUS121 was administered intraperitoneally for four days. After the MIA administration, the same amount of KUS121 was administered intraperitoneally five days per week.
Two weeks after the MIA administration the knee cartilages of the rats were resected, fixed with 10% neutral buffered formalin for about one week, demineralized with Morse's solution (for two weeks) or EDTA (for one month), cleaved along the medial collateral ligament, and embedded in paraffin with the cut surface facing up. Sections were cut every 100-200 μm with a thickness of 3-6 μm. The sections were stained with Safranin-O, which stains chondrocytes, and observed with a fluorescence microscope (KEYENCE BZ9000). […] In addition, three blinded evaluators evaluated ORSI scores for medial femur, lateral femur, medial tibia, and lateral tibia on the basis of the results of the Safranin-O staining. […]

Cc1cc(F)ccc1-c1ccc(/N=N/c2cc(S(=O)(=O)O)c3ccccc3c2N)cn1 [KUS121, 4-amino-3-[6-(4-fluoro-2-methylphenyl)pyridine-3-ylazo]naphthalene-1-sulfonic acid sodium salt] was tested, and the “Number of viable cells (CCK-8)” value [1] was “larger”, the “Cell death (relative number of viable cells, WST8)” value (mouse chondrocytes [2]) was “significantly suppressed” and the “Caspase 3/7 activity” value [3] was “not increased”. The “Expression of Casp3, an apoptosis marker, Western blotting” value [4] was “suppressed”, the “Expression of phosphorylated JNK (p-JNK), Western blotting” value [5] was “suppressed” and the “Viable cells (CCK-8)” value (human chondrocytes) was “not decreased”. The “Gene expression of MMP1, real-time PCR” value [6] was “suppressed”, the “Gene expression of MMP13, real-time PCR” value [6] was “suppressed” and the “Expression of ATF4, Western blotting” value [7] was “suppressed”. The “Expression of Bip, Western blotting” value [7] was “suppressed”, the “Expression of CHOP, Western blotting” value [7] was “suppressed” and the “Cell death (relative number of viable cells, WST8)” value (mouse chondrocytes [8]) was “significantly suppressed”. The “Expression of Bip (ER stress marker), Western blotting” value [9] was “suppressed”, the “Expression of CHOP, Western blotting” value [9] was “suppressed” and the “Volume of cartilage damage in posterolateral femoral condyle” value ([10]; four weeks after the operation, FIG. 16) was “significantly reduced”. The “Number of chondrocytes in posterolateral femoral condyle” value ([10]; four weeks after the operation, FIG. 17) was “significantly higher”, the “Modified Mankin score of posterolateral femoral condyle” value ([10]; four weeks after the operation) was “no significant difference” and the “Modified Mankin score of posterolateral femoral condyle” value ([10]; two weeks after the operation) was “significantly lower”. For the same compound, the “Cell death (relative number of viable cells, WST8)” value (mouse chondrocytes [11]) was “significantly suppressed”, the “Safranin-O staining of knee cartilage sections (indicates chondrocytes)” value ([12]; versus control group (PBS), FIG. 12, 13) was “darker” and the “ORSI score (mean of medial femur, lateral femur, medial tibia, lateral tibia)” value ([12]; versus control group, FIG. 14) was “lower”.
